Measurements taken from patent publication US20260308159A1, “BICYCLIC HETEROARYLAMIDES HAVING GPR68 MODULATING ACTIVITY” (RECURSION PHARMACEUTICALS, INC., priority 2023, published 2026).

Biological target: T1, human GPR68 (Homo sapiens, UniProt Q15743)
T1 construct: encoding full-length human GPR68 (uniprot ID: Q15743); expressed in transfected cells; host or cells: HEK293T
Experiment: GPR68 Biochemical Assay (Promega GloSensor cAMP assay, GPR68 antagonism)
Format: cell-based
Settings: HEK293T cells transiently expressing hGPR68, antagonism of pH 5.5 stimulated cAMP, 15 min, read-out: hGPR68 IC50
Summary of the method: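 Readout is GloSensor cAMP luminescence after 15 min at room temperature, normalised between pH 5.5 stimulation and pH 8.0 minimum controls; IC50 fitted sigmoidally. Test compounds, up to 50 μM final (9-point half-log, 0.5% DMSO), were co-added with pH 5.5 buffer to HEK293T cells transiently expressing full-length human GPR68 plus GloSensor.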

T1 sequence (Q15743 whole entry): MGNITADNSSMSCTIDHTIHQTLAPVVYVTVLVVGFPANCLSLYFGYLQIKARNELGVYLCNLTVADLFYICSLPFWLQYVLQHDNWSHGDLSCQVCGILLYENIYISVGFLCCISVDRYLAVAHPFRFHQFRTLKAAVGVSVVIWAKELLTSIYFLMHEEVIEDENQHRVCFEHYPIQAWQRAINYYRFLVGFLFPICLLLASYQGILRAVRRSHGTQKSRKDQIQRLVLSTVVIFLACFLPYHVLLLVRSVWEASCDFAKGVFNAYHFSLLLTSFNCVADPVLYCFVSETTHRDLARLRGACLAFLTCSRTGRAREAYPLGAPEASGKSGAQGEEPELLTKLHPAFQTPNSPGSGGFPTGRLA

| Compound | IC50 [nM] |
| --- | --- |
| COCc1nc2c(C(=O)N[C@H]3C[C@@H](OC(F)(F)F)C3)ccnn2c1C(N)=O [Compound 55, 2-(methoxymethyl)-N8-[cis-3-(trifluoromethoxy)cyclobutyl]imidazo[1,2-b]pyridazine-3,8-dicarboxamide] | 50 to 500 |
| CN(C)c1nn2c(C(=O)NC3CC(F)(F)C3)ccnc2c1C(N)=O [Compound 35, N7-(3,3-difluorocyclobutyl)-2-(dimethylamino)pyrazolo[1,5-a]pyrimidine-3,7-dicarboxamide] | 500 to 5000 |
| NC(=O)c1c(-c2cccnn2)nn2c(C(=O)NC3Cc4ccccc4C3)ccnc12 [Compound 22, N7-indan-2-yl-2-pyridazin-3-yl-pyrazolo[1,5-a]pyrimidine-3,7-dicarboxamide] | 500 to 5000 |
| COCc1nn2c(C(=O)N[C@H]3CCc4ccccc43)ccnc2c1C(N)=O [Compound 183, 2-(methoxymethyl)-N7-[(1S)-indan-1-yl]pyrazolo[1,5-a]pyrimidine-3,7-dicarboxamide] | < 50 |
| COCc1nn2c(C(=O)NCc3cnn(C)c3)ccnc2c1C(N)=O [Compound 63, 2-(methoxymethyl)-N7-[(1-methylpyrazol-4-yl)methyl]pyrazolo[1,5-a]pyrimidine-3,7-dicarboxamide] | 500 to 5000 |
| COCc1nc2c(C(=O)NC3CCC(F)(F)CC3)ccnn2c1C(N)=O [Compound 109, N8-(4,4-difluorocyclohexyl)-2-(methoxymethyl)imidazo[1,2-b]pyridazine-3,8-dicarboxamide] | < 50 |
| NC(=O)c1c(C2CC2)nn2c(C(=O)NC3CS(=O)(=O)c4ccccc43)ccnc12 (centres unmarked) [Compound 231, 2-cyclopropyl-N7-(1,1-dioxo-2,3-dihydrobenzothiophen-3-yl)pyrazolo[1,5-a]pyrimidine-3,7-dicarboxamide] | < 50 |
| COCc1nn2c(C(=O)NCc3ccc(F)cc3)ccnc2c1C(N)=O [Compound 70, N7-[(4-fluorophenyl)methyl]-2-(methoxymethyl)pyrazolo[1,5-a]pyrimidine-3,7-dicarboxamide] | < 50 |
| COCc1nn2c(C(=O)NC3Cc4ccccc43)ccnc2c1C(N)=O (centres unmarked) [Compound 88, N7-(7-bicyclo[4.2.0]octa-1,3,5-trienyl)-2-(methoxymethyl)pyrazolo[1,5-a]pyrimidine-3,7-dicarboxamide] | < 50 |
| COCc1nc2c(C(=O)NC3CC(F)(F)c4ccccc43)ccnn2c1C(N)=O (centres unmarked) [Compound 107, N8-(3,3-difluoroindan-1-yl)-2-(methoxymethyl)imidazo[1,2-b]pyridazine-3,8-dicarboxamide] | < 50 |
| COCc1nn2c(C(=O)NC3CCC(C)(C)c4ccccc43)ccnc2c1C(N)=O (centres unmarked) [Compound 186, N7-(4,4-dimethyltetralin-1-yl)-2-(methoxymethyl)pyrazolo[1,5-a]pyrimidine-3,7-dicarboxamide] | 500 to 5000 |
| COCc1nc2c(C(=O)NC3CCC(F)(F)CC3)cc(C)nn2c1C(N)=O [Compound 218, N8-(4,4-difluorocyclohexyl)-2-(methoxymethyl)-6-methyl-imidazo[1,2-b]pyridazine-3,8-dicarboxamide] | 50 to 500 |
| Cc1nn2c(C(=O)NC3Cc4ccncc4C3)ccnc2c1C(N)=O (centres unmarked) [Compound 52, N7-(6,7-dihydro-5H-cyclopenta[c]pyridin-6-yl)-2-methyl-pyrazolo[1,5-a]pyrimidine-3,7-dicarboxamide] | 5000 to 50000 |
| NC(=O)c1cnn2c(C(=O)NC3Cc4cccc(-c5ccccn5)c4C3)ccnc12 (centres unmarked) [Compound 17, N7-[4-(2-pyridyl)indan-2-yl]pyrazolo[1,5-a]pyrimidine-3,7-dicarboxamide] | 50000 to 100000 |
| COc1ccc2c(c1)CC(NC(=O)c1ccnc3c(C(N)=O)cnn13)C2 (centres unmarked) [Compound 3, N7-(5-methoxyindan-2-yl)pyrazolo[1,5-a]pyrimidine-3,7-dicarboxamide] | 50000 to 100000 |
| COCc1nn2c(C(=O)NC3COc4cc(F)cc(F)c43)ccnc2c1C(N)=O (centres unmarked) [Compound 153, N7-(4,6-difluoro-2,3-dihydrobenzofuran-3-yl)-2-(methoxymethyl)pyrazolo[1,5-a]pyrimidine-3,7-dicarboxamide] | < 50 |
| CC(COc1ccc(C(C)(C)C)cc1)NC(=O)c1ccnc2c(C(N)=O)cnn12 (centres unmarked) [Compound 99, N7-[1-(4-tert-butylphenoxy)propan-2-yl]pyrazolo[1,5-a]pyrimidine-3,7-dicarboxamide] | 5000 to 50000 |
| COCc1nn2c(C(=O)NC3CCC(F)(F)c4ccccc43)ccnc2c1C(N)=O (single isomer, unassigned) [Compound 175, N7-[-4,4-difluorotetralin-1-yl]-2-(methoxymethyl)pyrazolo[1,5-a]pyrimidine-3,7-dicarboxamide] | < 50 |
| COCc1nn2c(C(=O)NC3Cc4cc(F)c(F)cc4C3)ccnc2c1C(N)=O [Compound 195, N7-(5,6-difluoroindan-2-yl)-2-(methoxymethyl)pyrazolo[1,5-a]pyrimidine-3,7-dicarboxamide] | < 50 |
| COCc1nn2c(C(=O)NC3CCS(=O)(=O)c4ccccc43)cc(C)nc2c1C(N)=O (centres unmarked) [Compound 241, N7-(1,1-dioxo-3,4-dihydro-2H-thiochromen-4-yl)-2-(methoxymethyl)-5-methyl-pyrazolo[1,5-a]pyrimidine-3,7-dicarboxamide] | 50 to 500 |
| NC(=O)c1c(C2CC2)nn2c(C(=O)NC3CCS(=O)(=O)c4ccccc43)ccnc12 (centres unmarked) [Compound 229, 2-cyclopropyl-N7-(1,1-dioxo-3,4-dihydro-2H-thiochromen-4-yl)pyrazolo[1,5-a]pyrimidine-3,7-dicarboxamide] | < 50 |
| NC(=O)c1cnn2c(C(=O)NC3CC4(CCOCC4)C3)ccnc12 [Compound 12, N7-(7-oxaspiro[3.5]nonan-2-yl)pyrazolo[1,5-a]pyrimidine-3,7-dicarboxamide] | 50000 to 100000 |
| COCc1nn2c(C(=O)Nc3cc(C)cc(C)n3)ccnc2c1C(N)=O [Compound 64, N7-(4,6-dimethyl-2-pyridyl)-2-(methoxymethyl)pyrazolo[1,5-a]pyrimidine-3,7-dicarboxamide] | < 50 |

The remaining lines, values ahead:

| IC50 [nM] | Compound |
| --- | --- |
| 500 to 5000 | NC(=O)c1cnn2c(C(=O)NC3CCC(F)(F)CC3)ccnc12 [Compound 103, N7-(4,4-difluorocyclohexyl)pyrazolo[1,5-a]pyrimidine-3,7-dicarboxamide] |
| 500 to 5000 | Cc1ccc(-c2ccncc2)cc1NC(=O)c1ccnc2c(C(N)=O)cnn12 [Compound 97, N7-[2-methyl-5-(pyridin-4-yl)phenyl]pyrazolo[1,5-a]pyrimidine-3,7-dicarboxamide] |
| < 50 | COCc1nn2c(C(=O)NC3COc4ccc(Br)cc4C3)ccnc2c1C(N)=O (centres unmarked) [Compound 144, N7-(6-bromochroman-3-yl)-2-(methoxymethyl)pyrazolo[1,5-a]pyrimidine-3,7-dicarboxamide] |
| 5000 to 50000 | CCC(CNC(=O)c1ccnc2c(C(N)=O)cnn12)Oc1cccc(C)c1 (centres unmarked) [Compound 96, N7-[2-(3-methylphenoxy)butyl]pyrazolo[1,5-a]pyrimidine-3,7-dicarboxamide] |
| < 50 | NC(=O)c1c(C2CC2)nn2c(C(=O)N[C@H]3CCOc4cc(F)ccc43)ccnc12 [Compound 113, 2-cyclopropyl-N7-[(4S)-7-fluorochroman-4-yl]pyrazolo[1,5-a]pyrimidine-3,7-dicarboxamide] |
| 50 to 500 | COCc1nn2c(C(=O)NC3(c4ccc(F)cc4)CC3)ccnc2c1C(N)=O [Compound 127, N7-[1-(4-fluorophenyl)cyclopropyl]-2-(methoxymethyl)pyrazolo[1,5-a]pyrimidine-3,7-dicarboxamide] |
| 50 to 500 | COCc1nn2c(C(=O)NC3CCOc4ncccc43)ccnc2c1C(N)=O (centres unmarked) [Compound 171, N7-(3,4-dihydro-2H-pyrano[2,3-b]pyridin-4-yl)-2-(methoxymethyl)pyrazolo[1,5-a]pyrimidine-3,7-dicarboxamide] |
| < 50 | COCc1nn2c(C(=O)NC3CCOc4cc(F)c(F)cc43)ccnc2c1C(N)=O (centres unmarked) [Compound 182, N7-(6,7-difluorochroman-4-yl)-2-(methoxymethyl)pyrazolo[1,5-a]pyrimidine-3,7-dicarboxamide] |
| < 50 | COCc1nc2c(C(=O)NC3Cc4cscc4C3)ccnn2c1C(N)=O [Compound 105, N8-(5,6-dihydro-4H-cyclopenta[c]thiophen-5-yl)-2-(methoxymethyl)imidazo[1,2-b]pyridazine-3,8-dicarboxamide] |
| < 50 | COCc1nn2c(C(=O)NC3CS(=O)(=O)c4ccccc43)ccnc2c1C(N)=O (centres unmarked) [Compound 168, N7-(1,1-dioxo-2,3-dihydrobenzothiophen-3-yl)-2-(methoxymethyl)pyrazolo[1,5-a]pyrimidine-3,7-dicarboxamide] |
| < 50 | COCc1nn2c(C(=O)Nc3ccc(F)c(F)c3)ccnc2c1C(N)=O [Compound 66, N7-(3,4-difluorophenyl)-2-(methoxymethyl)pyrazolo[1,5-a]pyrimidine-3,7-dicarboxamide] |

Same assay, conditions: hGPR68 IC50, HEK293T cells transiently expressing hGPR68, antagonism of pH 5.5 stimulated cAMP, 15 min

| IC50 [nM] | Compound |
| --- | --- |
| 50 to 500 | NC(=O)c1c(C2CCCO2)nn2c(C(=O)NC3Cc4ccccc4C3)ccnc12 (centres unmarked) [Compound 44, N7-indan-2-yl-2-tetrahydrofuran-2-yl-pyrazolo[1,5-a]pyrimidine-3,7-dicarboxamide] |
| 5000 to 50000 | Cc1cnc2c(C(N)=O)c(C)nn2c1C(=O)NC1CC(F)(F)C1 [Compound 38, N7-(3,3-difluorocyclobutyl)-2,6-dimethyl-pyrazolo[1,5-a]pyrimidine-3,7-dicarboxamide] |
| < 50 | COCc1nn2c(C(=O)Nc3ccc(C(F)(F)F)cn3)ccnc2c1C(N)=O [Compound 59, 2-(methoxymethyl)-N7-[5-(trifluoromethyl)-2-pyridyl]pyrazolo[1,5-a]pyrimidine-3,7-dicarboxamide] |
| < 50 | CC(C)OCc1nn2c(C(=O)NC3Cc4ccccc4C3)ccnc2c1C(N)=O [Compound 27, N7-indan-2-yl-2-(isopropoxymethyl)pyrazolo[1,5-a]pyrimidine-3,7-dicarboxamide] |
